Drawing on patent publication US20230002367A1, “BIFUNCTIONAL COMPOUNDS” (Hoffmann-La Roche Inc., priority 2019, published 2023), this text covers Emax and DC50 for 15 molecules.

The target of the test is T1, SMARCA2 (Homo sapiens, UniProt P51531).
T1 construct: endogenous in cells
The test can be described thus: SMARCA2 HiBiT degradation assay (cellular). Format: cell-based. Conditions: for Emax: A549, Emax = amount of residual protein remaining in the cell following compound treatment; for DC50: SMARCA2 HiBiT cells, luminescence readout, 11-point titration from 10 μM, 6 hours or 16 hours, read-out: HiBit A549 SMARCA2 IP. Background: HiBiT is a short tag that completes a luciferase, so light tracks the accessible tagged protein.

The Emax is the size of the effect at its maximum, as opposed to the concentration needed.

T1 sequence (P51531 whole entry): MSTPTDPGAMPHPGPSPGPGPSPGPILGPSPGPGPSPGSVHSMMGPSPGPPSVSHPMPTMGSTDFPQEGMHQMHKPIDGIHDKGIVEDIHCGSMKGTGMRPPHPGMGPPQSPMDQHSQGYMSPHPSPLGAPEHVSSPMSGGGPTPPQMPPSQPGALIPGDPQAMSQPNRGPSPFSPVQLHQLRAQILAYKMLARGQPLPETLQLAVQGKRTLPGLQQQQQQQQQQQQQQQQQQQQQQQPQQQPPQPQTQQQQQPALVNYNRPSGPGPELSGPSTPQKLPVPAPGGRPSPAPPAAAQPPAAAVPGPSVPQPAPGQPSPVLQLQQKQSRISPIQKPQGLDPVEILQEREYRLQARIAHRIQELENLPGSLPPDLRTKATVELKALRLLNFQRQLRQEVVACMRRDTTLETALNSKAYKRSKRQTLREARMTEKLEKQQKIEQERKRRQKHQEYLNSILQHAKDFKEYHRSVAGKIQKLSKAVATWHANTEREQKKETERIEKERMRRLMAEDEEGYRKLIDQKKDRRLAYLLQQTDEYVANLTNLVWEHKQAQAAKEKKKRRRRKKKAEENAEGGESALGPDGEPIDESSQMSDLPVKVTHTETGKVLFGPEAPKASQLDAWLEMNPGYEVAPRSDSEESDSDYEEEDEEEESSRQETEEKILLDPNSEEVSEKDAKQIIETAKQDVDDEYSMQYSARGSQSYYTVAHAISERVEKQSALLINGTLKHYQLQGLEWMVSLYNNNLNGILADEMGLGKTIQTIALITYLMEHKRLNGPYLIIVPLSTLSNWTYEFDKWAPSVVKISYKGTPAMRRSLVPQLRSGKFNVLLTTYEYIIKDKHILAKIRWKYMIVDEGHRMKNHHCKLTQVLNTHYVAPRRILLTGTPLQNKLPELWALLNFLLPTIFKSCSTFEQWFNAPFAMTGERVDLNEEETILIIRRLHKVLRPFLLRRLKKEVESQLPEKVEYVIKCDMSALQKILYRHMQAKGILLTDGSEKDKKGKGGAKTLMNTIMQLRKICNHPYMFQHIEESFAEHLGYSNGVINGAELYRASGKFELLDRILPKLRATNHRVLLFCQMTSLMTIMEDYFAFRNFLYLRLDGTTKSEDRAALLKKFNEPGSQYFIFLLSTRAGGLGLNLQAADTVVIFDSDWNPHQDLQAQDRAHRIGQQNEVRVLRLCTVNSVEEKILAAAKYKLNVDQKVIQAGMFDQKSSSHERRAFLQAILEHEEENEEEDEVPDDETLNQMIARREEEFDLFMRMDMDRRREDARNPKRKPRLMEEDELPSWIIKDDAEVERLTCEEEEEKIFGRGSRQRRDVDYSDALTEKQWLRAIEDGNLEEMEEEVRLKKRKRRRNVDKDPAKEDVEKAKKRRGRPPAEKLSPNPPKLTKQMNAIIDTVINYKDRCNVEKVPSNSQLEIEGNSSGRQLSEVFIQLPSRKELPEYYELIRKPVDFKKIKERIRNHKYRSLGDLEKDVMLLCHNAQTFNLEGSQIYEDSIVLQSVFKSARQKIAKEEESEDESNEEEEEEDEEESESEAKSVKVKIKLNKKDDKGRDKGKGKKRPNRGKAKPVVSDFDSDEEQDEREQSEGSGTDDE

For `Cc1ncsc1-c1ccc(CNC(=O)[C@@H]2C[C@@H](O)CN2C(=O)[C@@H](NC(=O)CCCCCCCCCC(=O)N2CCN(Cc3cccc(N4C5CCC4CN(c4cc(-c6ccccc6O)nnc4N)C5)c3)CC2)C(C)(C)C)cc1` [Example 7, (2S,4R)-1-[(2S)-2-[[11-[4-[[3-[3-[3-amino-6-(2-hydroxyphenyl)pyridazin-4-yl]-3,8-diazabicyclo[3.2.1]octan-8-yl]phenyl]methyl]piperazin-1-yl]-11-oxo-undecanoyl]amino]-3,3-dimethyl-butanoyl]-4-hydroxy-N-[[4-(4-methylthiazol-5-yl)phenyl]methyl]pyrrolidine-2-carboxamide], the maximal effect (Emax) amounted to 39% and the DC50 was 357 nM.

Consider `Cc1ncsc1-c1ccc(CNC(=O)[C@@H]2C[C@@H](O)CN2C(=O)[C@@H](NC(=O)CCCCCCCCC(=O)N2CCN(c3cc(-c4ccccc4O)nnc3N)CC23CC3)C(C)(C)C)cc1` [Example 16, (2S,4R)-1-[(2S)-2-[[10-[7-[3-amino-6-(2-hydroxyphenyl)pyridazin-4-yl]-4,7-diazaspiro[2.5]octan-4-yl]-10-oxo-decanoyl]amino]-3,3-dimethyl-butanoyl]-4-hydroxy-N-[[4-(4-methylthiazol-5-yl)phenyl]methyl]pyrrolidine-2-carboxamide], for which the Emax is 33% and the DC50 was found to be 872 nM.

As to `Cc1ncsc1-c1ccc(CNC(=O)[C@@H]2C[C@@H](O)CN2C(=O)[C@@H](NC(=O)CCCCCCCCC(=O)N2CCN(CCOc3cccc(N4C5CCC4CN(c4cc(-c6ccccc6O)nnc4N)C5)c3)CC2)C(C)(C)C)cc1` [Example 10, (2S,4R)-1-[(2S)-2-[[10-[4-[2-[3-[3-[3-amino-6-(2-hydroxyphenyl)pyridazin-4-yl]-3,8-diazabicyclo[3.2.1]octan-8-yl]phenoxy]ethyl]piperazin-1-yl]-10-oxo-decanoyl]amino]-3,3-dimethyl-butanoyl]-4-hydroxy-N-[[4-(4-methylthiazol-5-yl)phenyl]methyl]pyrrolidine-2-carboxamide], the maximal effect (Emax) turned out to be 19% and the DC50 was 286 nM.

On to `Cc1ncsc1-c1ccc([C@H](C)NC(=O)[C@@H]2C[C@@H](O)CN2C(=O)[C@@H](NC(=O)CCCCCCCCCCCCC(=O)N(C)CC(COc2cc(-c3ccccc3O)nnc2N)c2ccccc2)C(C)(C)C)cc1` (mixture of isomers) [Example 23, N′-[3-[3-amino-6-(2-hydroxyphenyl)pyridazin-4-yl]oxy-2-phenyl-propyl]-N′-methyl-N-[rac-(1S)-2,2-dimethyl-1-[rac-(2S,4R)-4-hydroxy-2-[[rac-(1S)-1-[4-(4-methylthiazol-5-yl)phenyl]ethyl]carbamoyl]pyrrolidine-1-carbonyl]propyl]tetradecanediamide], for which the maximal response (Emax) was determined as 38% and the DC50 amounted to 428 nM.

For `Cc1ncsc1-c1ccc([C@H](C)NC(=O)[C@@H]2C[C@@H](O)CN2C(=O)[C@@H](NC(=O)CCCCCCCCCCC(=O)N(C)CC(COc2cc(-c3ccccc3O)nnc2N)c2ccccc2)C(C)(C)C)cc1` (mixture of isomers) [Example 22, N′-[3-[3-amino-6-(2-hydroxyphenyl)pyridazin-4-yl]oxy-2-phenyl-propyl]-N′-methyl-N-[rac-(1S)-2,2-dimethyl-1-[rac-(2S,4R)-4-hydroxy-2-[[rac-(1S)-1-[4-(4-methylthiazol-5-yl)phenyl]ethyl]carbamoyl]pyrrolidine-1-carbonyl]propyl]dodecanediamide], the maximal effect (Emax) came to 27% and the DC50 was 455 nM.

As to `Cc1ncsc1-c1ccc([C@H](C)NC(=O)[C@@H]2C[C@@H](O)CN2C(=O)[C@@H](NC(=O)CCCCCC(=O)N2CCN(Cc3cccc(OC4CN(c5cc(-c6ccccc6O)nnc5N)C4)c3)CC2)C(C)(C)C)cc1` [Example 83, (2S,4R)-1-[(2S)-2-[[7-[4-[[3-[1-[3-amino-6-(2-hydroxyphenyl)pyridazin-4-yl]azetidin-3-yl]oxyphenyl]methyl]piperazin-1-yl]-7-oxo-heptanoyl]amino]-3,3-dimethyl-butanoyl]-4-hydroxy-N-[(1S)-1-[4-(4-methylthiazol-5-yl)phenyl]ethyl]pyrrolidine-2-carboxamide], the Emax amounted to 44% and the DC50 was 789 nM.

On to `Cc1ncsc1-c1ccc([C@H](C)NC(=O)[C@@H]2C[C@@H](O)CN2C(=O)[C@@H](NC(=O)CCCCCCCCC(=O)N2CCN(Cc3cccc(CCOc4cc(-c5ccccc5O)nnc4N)c3)CC2)C(C)(C)C)cc1` [Example 106, (2S,4R)-1-[(2S)-2-[[10-[4-[[3-[2-[3-amino-6-(2-hydroxyphenyl)pyridazin-4-yl]oxyethyl]phenyl]methyl]piperazin-1-yl]-10-oxo-decanoyl]amino]-3,3-dimethyl-butanoyl]-4-hydroxy-N-[(1S)-1-[4-(4-methylthiazol-5-yl)phenyl]ethyl]pyrrolidine-2-carboxamide], for which the maximum response (Emax) came out at 39% and the DC50 stood at 346 nM.

Take `Cc1ncsc1-c1ccc(CNC(=O)[C@@H]2C[C@@H](O)CN2C(=O)[C@@H](NC(=O)CCCCCCCCC(=O)N2CC=C(c3cc(-c4ccccc4O)nnc3N)CC2)C(C)(C)C)cc1` [Example 17, (2S,4R)-1-[(2S)-2-[[10-[4-[3-amino-6-(2-hydroxyphenyl)pyridazin-4-yl]-3,6-dihydro-2H-pyridin-1-yl]-10-oxo-decanoyl]amino]-3,3-dimethyl-butanoyl]-4-hydroxy-N-[[4-(4-methylthiazol-5-yl)phenyl]methyl]pyrrolidine-2-carboxamide]: the maximal response (Emax) is 50% and the DC50 stood at 2820 nM.

For the molecule `Cc1ncsc1-c1ccc(CNC(=O)[C@@H]2C[C@@H](O)CN2C(=O)[C@@H](NC(=O)CCCCCCCCC(=O)N2C3CCC2CN(c2cc(-c4ccccc4O)nnc2N)C3)C(C)(C)C)cc1` [Example 5, (2S,4R)-1-[(2S)-2-[[10-[3-[3-amino-6-(2-hydroxyphenyl)pyridazin-4-yl]-3,8-diazabicyclo[3.2.1]octan-8-yl]-10-oxo-decanoyl]amino]-3,3-dimethyl-butanoyl]-4-hydroxy-N-[[4-(4-methylthiazol-5-yl)phenyl]methyl]pyrrolidine-2-carboxamide], the Emax was 31% and the DC50 came to 2510 nM.

`Cc1ncsc1-c1ccc([C@H](C)NC(=O)[C@@H]2C[C@@H](O)CN2C(=O)[C@@H](NC(=O)CCCCCCCCC(=O)N2CCN(C(=O)c3ccc(OC4CN(c5cc(-c6ccccc6O)nnc5N)C4)cc3)CC2)C(C)(C)C)cc1` [Example 104, (2S,4R)-1-[(2S)-2-[[10-[4-[4-[1-[3-amino-6-(2-hydroxyphenyl)pyridazin-4-yl]azetidin-3-yl]oxybenzoyl]piperazin-1-yl]-10-oxo-decanoyl]amino]-3,3-dimethyl-butanoyl]-4-hydroxy-N-[(1S)-1-[4-(4-methylthiazol-5-yl)phenyl]ethyl]pyrrolidine-2-carboxamide]: the Emax stood at 54% and the DC50 was determined as 375 nM.

In the case of `Cc1ncsc1-c1ccc([C@H](C)NC(=O)[C@@H]2C[C@@H](O)CN2C(=O)[C@@H](NC(=O)CCCCCC(=O)N2CCN(c3ccc(N4CCCC(Oc5cc(-c6ccccc6O)nnc5N)C4)cc3)CC2)C(C)(C)C)cc1` (mixture of isomers) [Example 32, rac-(2S,4R)-4-hydroxy-1-[rac-(2S)-2-[[7-[4-[4-[3-[3-amino-6-(2-hydroxyphenyl)pyridazin-4-yl]oxy-1-piperidyl]phenyl]piperazin-1-yl]-7-oxo-heptanoyl]amino]-3,3-dimethyl-butanoyl]-N-[rac-(1S)-1-[4-(4-methylthiazol-5-yl)phenyl]ethyl]pyrrolidine-2-carboxamide], the maximum response (Emax) came out at 20% and the DC50 turned out to be 119 nM.

As to `Cc1ncsc1-c1ccc([C@H](C)NC(=O)[C@@H]2C[C@@H](O)CN2C(=O)[C@@H](NC(=O)CCCCCC(=O)N2CCN(c3cccc(N4CCCC(Oc5cc(-c6ccccc6O)nnc5N)C4)c3)CC2)C(C)(C)C)cc1` (mixture of isomers) [Example 90, rac-(2S,4R)-4-hydroxy-1-[rac-(2S)-2-[[7-[4-[3-[3-[3-amino-6-(2-hydroxyphenyl)pyridazin-4-yl]oxy-1-piperidyl]phenyl]piperazin-1-yl]-7-oxo-heptanoyl]amino]-3,3-dimethyl-butanoyl]-N-[rac-(1S)-1-[4-(4-methylthiazol-5-yl)phenyl]ethyl]pyrrolidine-2-carboxamide], the maximal effect (Emax) is 34% and the DC50 was 1320 nM.

In the case of `Cc1ncsc1-c1ccc(CNC(=O)[C@@H]2C[C@@H](O)CN2C(=O)[C@@H](NC(=O)CCCCCCCN2CCN(C(=O)CN(C)Cc3ccc(-c4cc(-c5ccccc5O)nnc4N)cc3)CC2)C(C)(C)C)cc1` [Example 87, (2S,4R)-1-[(2S)-2-[8-[4-[2-[[4-[3-amino-6-(2-hydroxyphenyl)pyridazin-4-yl]phenyl]methyl-methyl-amino]acetyl]piperazin-1-yl]octanoylamino]-3,3-dimethyl-butanoyl]-4-hydroxy-N-[[4-(4-methylthiazol-5-yl)phenyl]methyl]pyrrolidine-2-carboxamide], the maximal response (Emax) amounted to 51% and the DC50 is 1300 nM.

For the molecule `Cc1ncsc1-c1ccc([C@H](C)NC(=O)[C@@H]2C[C@@H](O)CN2C(=O)[C@@H](NC(=O)CCCCCC(=O)N(C)CC(COc2cc(-c3ccccc3O)nnc2N)c2ccccc2)C(C)(C)C)cc1` (mixture of isomers) [Example 21, N′-[3-[3-amino-6-(2-hydroxyphenyl)pyridazin-4-yl]oxy-2-phenyl-propyl]-N′-methyl-N-[rac-(1S)-2,2-dimethyl-1-[rac-(2S,4R)-4-hydroxy-2-[[rac-(1S)-1-[4-(4-methylthiazol-5-yl)phenyl]ethyl]carbamoyl]pyrrolidine-1-carbonyl]propyl]heptanediamide], the Emax is 19% and the DC50 came out at 1010 nM.

`Cc1ncsc1-c1ccc(CNC(=O)[C@@H]2C[C@@H](O)CN2C(=O)[C@@H](NC(=O)CCCCCCCCC(=O)NC2C3CCC2CN(c2cc(-c4ccccc4O)nnc2N)C3)C(C)(C)C)cc1` (stereo partly drawn) [Example 89, N-[3-[3-amino-6-(2-hydroxyphenyl)pyridazin-4-yl]-3-azabicyclo[3.2.1]octan-8-yl]-N′-[(1S)-1-[(2S,4R)-4-hydroxy-2-[[4-(4-methylthiazol-5-yl)phenyl]methylcarbamoyl]pyrrolidine-1-carbonyl]-2,2-dimethyl-propyl]decanediamide]: the maximal effect (Emax) was determined as 56% and the DC50 is 1010 nM.
